Measured values as given in US20210380586A1, “2-INDOLYL IMIDAZO[4,5-D]PHENANTHROLINE POLYMORPHS AND COMPOSITIONS REGARDING THE SAME” (Aptose Biosciences Inc., priority 2020, published 2021).

Tests used:
[1] = USP <788> Method 1 HIAC particle count after mixing with Lactated Ringers; format: physicochemical; conditions: 4 mg/mL mixed with Lactated Ringers 2:1, held in glass or Nalgene container
Method: In USP <788> monograph, two methods were provided to determine particles or particulate matter in an injectable drug, i.e. using an analytical instrument to count particle or Method I (e.g. electronic light obscuration or HIAC method) or counting the particles using an optical microscope (Method 2). Prior to conducting the End-User Compatibility Study, a study was performed to determine the feasibility of sample collection and assessment by USP <788> Method I (HIAC analysis). For this study, Compound I-tetrahydrate (4 mg/mL) was mixed with Lactated Ringers IV Solution in a 2:1 ratio of Lactated Ringers solution to Compound I-tetrahydrate and held in a glass or Nalgene plastic container. Samples were held for 1, 5, 10, 15, 20, 25 and 30 minutes and analyzed by USP <788> Method 1 using a HIAC electronic light obscuration particle counter. […] This short time duration precluded the use of USP <788> Method 1 (HIAC) due to the large sample volumes (˜25 mL) and length of time required to collect this volume of sample, drop wise, from the infusion set.

[2] = Dynamic vapor sorption (DVS); format: physicochemical
Method: The mass uptake of 12% is equal to three equivalents of water; however, the material was not fully dry yet after drying at 0% RH for 24 hours. […] The water uptake and release is not stepwise, and no indication of other hydrates with different ratios of water is present.
Compound I-hydrate Form 2 was also analyzed by DVS (FIG. 14). Form 2 steadily gained 1.1 wt % from 5-95% RH. It underwent complete desorption with minor hysteresis.

[3] = Polymorph transition study, slurry in water-methanol, XRPD; format: physicochemical; conditions: in the presence of water
Method: The Slurry was maintained at 20° C. or at 50° C. for one week then the resulting crystals were analyzed by XRPD to determine its polymorphic form.

[4] = Variable relative humidity (VRH)-XRPD analysis; format: physicochemical
Method: To investigate the behavior of Crystalline Form 2 at various humidities and evaluate conditions that favor generation of Form 2 (tetrahydrate) versus Form 3 (dihydrate), Form 2 was characterized by VRH-XRPD. The analysis was conducted by beginning at ambient RH (˜50%) and lowering to 0% RH for 4 hours. Actual RH during this time ranged from 0.7-0.3%.

[5] = Effect of drying on polymorphic form, XRPD; format: physicochemical
Method: Crystalline Compound I-tetrahydrate Form 2 was dried under varying temperature, pressure, and time as indicted in Table 2. After the drying, the resulting crystals were analyzed by XRPD to determine its polymorphic form.

[6] = Exposure of solids to fixed relative humidity for 11 days, XRPD; format: physicochemical; conditions: for form after exposure to humidity: 11 days
Text: To determine relative humidity boundaries for conversion between Form 2 and Form 3, solids of Form 2 were exposed to P2O5 conditions (˜0% RH), 11%, and 23% RH. The solids were held at the specified humidities for 11 days to see if the longer duration would result in the presence of Form 3.

[7] = Single dose intravenous infusion in rats, toxicokinetic parameters in serum; format: in vivo, Sprague-Dawley rats
Method: Compound I-hydrate Form 2 was formulated in 23% Solutol HS-15 and 70% PG and diluted with Lactated Ringer Solution to a concentration of 0.061 mg/mL. […] Dose volume was 10 mL/Kg and the infusion rate was 120 mL/kg/hr.
Following dosing, a series of 12 blood samples (approximately 0.2 mL each) were collected from the rats in the first 72 hours. Following collection, blood samples were allowed to stand at room temperature for approximately 30 to 60 minutes to clot and then centrifused (1200×g for 10 minutes at approximately 4° C.) and the resulting serum was recovered and stored frozen until analysis. Mean toxicokinetic parameters were calculated (Table 7).

time at which particulate formed at levels exceeding USP acceptance criteria [1]: approximately 10 minutes
XRPD of the post-DVS solids ([2]; after sorption to 95% RH and desorption to 5% RH): No form change
DVS total mass uptake ([2]; continuous isothermal adsorption of water after drying at 0% RH for 24 hours (FIGS. 7 and 8)): 12%
DVS weight gain ([2]; from 5-95% RH): 1.1 wt %
stability in DVS de-sorption cycle ([2]; stable signal down to 10% RH): very stable
stability relative to Crystalline Form 1 [3]: more stable
VRH-XRPD Results ([4]; Held at ~0.3-0.7% RH, 4 hours): Form 2 + Form 3; amount of Form 3
VRH-XRPD Results ([4]; Initial scan at ambient RH (46.3%)): Consistent with Form 2
VRH-XRPD Results ([4]; finally held at ambient RH (~40% to ~37%)): Form 2 + trace amount of Form 3
VRH-XRPD Results ([4]; then held at ~50% RH, 1 hour (cycling back)): Form 2, possibly contains trace
VRH-XRPD Results ([4]; then held at ~50% RH, 1 hour (increasing RH)): Form 2 + Form 3
VRH-XRPD Results ([4]; then held at ~80% RH, 1 hour (cycling back)): Form 2, possibly contains trace
VRH-XRPD Results ([4]; then held at ~82-79% RH, 1 hour): Form 2 + trace amount of Form 3
VRH-XRPD Results ([4]; then held at ~85-87% RH, 2 hours): Form 2, possibly contains trace
stability under various drying conditions ([5]; 15-35 ° C., 600-0 mbar, up to 3 days): stable
Polymorphic form by XRPD after drying ([5]; 15 ° C., 0 mbar, drying time 1 h): Form 2
Polymorphic form by XRPD after drying ([5]; 15 ° C., 0 mbar, drying time 4 h): Form 1
Polymorphic form by XRPD after drying ([5]; 15 ° C., 0 mbar, drying time 24 h): Form 1
Polymorphic form by XRPD after drying ([5]; 15 ° C., 0 mbar, drying time 3 days): Form 1
Polymorphic form by XRPD after drying ([5]; 15 ° C., 400 mbar, drying time 1 h): Form 2
Polymorphic form by XRPD after drying ([5]; 15 ° C., 400 mbar, drying time 4 h): Form 2
Polymorphic form by XRPD after drying ([5]; 15 ° C., 400 mbar, drying time 24 h): Form 2
Polymorphic form by XRPD after drying ([5]; 15 ° C., 400 mbar, drying time 3 days): Form 2
Polymorphic form by XRPD after drying ([5]; 15 ° C., 600 mbar, drying time 1 h): Form 2
Polymorphic form by XRPD after drying ([5]; 15 ° C., 600 mbar, drying time 4 h): Form 2
Polymorphic form by XRPD after drying ([5]; 15 ° C., 600 mbar, drying time 24 h): Form 2
Polymorphic form by XRPD after drying ([5]; 15 ° C., 600 mbar, drying time 3 days): Form 2
Polymorphic form by XRPD after drying ([5]; 25 ° C., 0 mbar, drying time 1 h): Form 2
Polymorphic form by XRPD after drying ([5]; 25 ° C., 0 mbar, drying time 4 h): Form 1
Polymorphic form by XRPD after drying ([5]; 25 ° C., 0 mbar, drying time 24 h): Form 1
Polymorphic form by XRPD after drying ([5]; 25 ° C., 400 mbar, drying time 1 h): Form 2
Polymorphic form by XRPD after drying ([5]; 25 ° C., 400 mbar, drying time 4 h): Form 2
Polymorphic form by XRPD after drying ([5]; 25 ° C., 400 mbar, drying time 24 h): Form 2
Polymorphic form by XRPD after drying ([5]; 25 ° C., 400 mbar, drying time 3 days): Form 2
Polymorphic form by XRPD after drying ([5]; 25 ° C., 600 mbar, drying time 1 h): Form 2
Polymorphic form by XRPD after drying ([5]; 25 ° C., 600 mbar, drying time 4 h): Form 2
Polymorphic form by XRPD after drying ([5]; 25 ° C., 600 mbar, drying time 24 h): Form 2
Polymorphic form by XRPD after drying ([5]; 25 ° C., 600 mbar, drying time 3 days): Form 2
Polymorphic form by XRPD after drying ([5]; 35 ° C., 0 mbar, drying time 1 h): Form 1 and Form 2
Polymorphic form by XRPD after drying ([5]; 35 ° C., 0 mbar, drying time 4 h): Form 1
Polymorphic form by XRPD after drying ([5]; 35 ° C., 0 mbar, drying time 24 h): Form 1
Polymorphic form by XRPD after drying ([5]; 35 ° C., 400 mbar, drying time 1 h): Form 2
Polymorphic form by XRPD after drying ([5]; 35 ° C., 400 mbar, drying time 4 h): Form 2
Polymorphic form by XRPD after drying ([5]; 35 ° C., 400 mbar, drying time 24 h): Form 2
Polymorphic form by XRPD after drying ([5]; 35 ° C., 600 mbar, drying time 1 h): Form 2
Polymorphic form by XRPD after drying ([5]; 35 ° C., 600 mbar, drying time 4 h): Form 2
Polymorphic form by XRPD after drying ([5]; 35 ° C., 600 mbar, drying time 24 h): Form 2
form change under full vacuum ([5]; full vacuum (0 mbar) for four hours, all temperature tested): complete conversion to Form 1
form after exposure to humidity ([6]; 11% RH): no form change
form after exposure to humidity ([6]; 23% RH): no form change
form after exposure to humidity ([6]; P2O5 conditions (~0% RH)): converts to Form 3
relative humidity at and above which physically stable ([6]; exposed for over a week): ≥ 11 % RH
Structure (SMILES): Cc1[nH]c2ccc(F)cc2c1-c1nc2c3cccnc3c3ncccc3c2[nH]1 [Compound I-hydrate Form 2]
AUC(0-inf) ([7]; Sprague-Dawley, rat, male rats serum, 0.5 mg/kg, single IV infusion over 5 min, mean): 130 ng·h/mL
AUC(0-t) ([7]; Sprague-Dawley, rat, male rats serum, 0.5 mg/kg, single IV infusion over 5 min, mean, read-out: AUC0-Tlast): 100 ng·h/mL
clearance ([7]; Sprague-Dawley, rat, male rats serum, 0.5 mg/kg, single IV infusion over 5 min, mean, read-out: Cl (total body clearance per kg body weight) (converted)): 64 mL/min/kg
Cmax ([7]; Sprague-Dawley, rat, male rats serum, 0.5 mg/kg, single IV infusion over 5 min, mean, read-out: Cmax (maximum plasma concentration)): 1750 ng/mL
half-life ([7]; Sprague-Dawley, rat, male rats serum, 0.5 mg/kg, single IV infusion over 5 min, mean, read-out: T1/2 (Terminal elimination half-life) (converted)): 1.45 h
Tmax ([7]; Sprague-Dawley, rat, male rats serum, 0.5 mg/kg, single IV infusion over 5 min, mean, read-out: Tmax (time to maximum plasma concentration)): 0 h
Vd ([7]; Sprague-Dawley, rat, male rats serum, 0.5 mg/kg, single IV infusion over 5 min, mean, read-out: Vz (volume of distribution per kg body weight)): 8.04 L/kg
AUC % Extrap ([7]; male rats serum, 0.5 mg/kg, single IV infusion over 5 min, mean): 23.1%
AUCs, fold higher than with Compound I-HCl salt ([7]; rats, 0.5 mg/kg IV): approximately 3 fold
Cmax, fold higher than with Compound I-HCl salt ([7]; rats, 0.5 mg/kg IV): approximately 3 fold
volume of distribution, fold higher than Compound I-HCl salt ([7]; rats, 0.5 mg/kg IV): 1.6 fold
